Measured values published in patent US20080269279A1, “Substituted furo[2,3-B] pyridine derivatives as cannabinoid-1 receptor modulators” (priority 2007, published 2008).
Where two headings read alike, the source gives them in different places.

How the values were obtained:
[1] = biological target: T1, recombinant human CB1 receptor (Homo sapiens, UniProt P21554); experiment: Cannabinoid Receptor-1 (CB1) Binding Assay ([3H]CP-55940 displacement)
T1 construct: expressed in transfected cells
Experimental: Binding affinity determination is based on recombinant human CB1 receptor expressed in Chinese Hamster Ovary (CHO) cells (Felder et al, Mol. Pharmacol. 48: 443-450, 1995). Total assay volume is 250 μl (240 μl CB1 receptor membrane solution plus 5 μl test compound solution plus 5 μl [3H]CP-55940 solution). Final concentration of [3H]CP-55940 is 0.6 nM. Binding buffer contains 50 mM Tris-HCl, pH 7.4, 2.5 mM EDTA, 5 mM MgCl2, 0.5 mg/mL fatty acid free bovine serum albumin and protease inhibitors (Cat#P8340, from Sigma). To initiate the binding reaction, 5 μl of radioligand solution is added, the mixture is incubated with gentle shaking on a shaker for 1.5 h at 30° C. The binding is terminated by using 96-well harvester and filtering through GF/C filter presoaked in 0.05% polyethylenimine. The bound radiolabel is quantitated using scintillation counter. Apparent binding affinities for various compounds are calculated from IC50 values (DeBlasi et al., Trends Pharmacol Sci 10: 227-229, 1989).

[2] = biological target: T1, recombinant human CB1 receptor; experiment: Cannabinoid Receptor-1 (CB1) Functional Activity Assay (intracellular cAMP in CB1-CHO cells); type: cell-based; details: for functional mode at CB1 receptor: CB1 functional activity assay, cAMP
Experimental: The functional activation of CB1 receptor is based on recombinant human CB1 receptor expressed in CHO cells (Felder et al, Mol. Pharmacol. 48: 443-450, 1995). To determine the agonist activity or inverse agonist activity of any test compound, 50 ul of CB1-CHO cell suspension are mixed with test compound and 70 ul assay buffer containing 0.34 mM 3-isobutyl-1-methylxanthine and 5.1 uM of forskolin in 96-well plates. The assay buffer is comprised of Earle's Balanced Salt Solution supplemented with 5 mM MgCl2 1 mM glutamine, 10 mM HEPES, and 1 mg/mL bovine serum albumin. The mixture is incubated at room temperature for 30 minutes, and terminated by adding 30 ul/well of 0.5M HCl. The total intracellular cAMP level is quantitated using the New England Nuclear Flashplate and cAMP radioimmunoassay kit.
To determine the antagonist activity of test compound, the reaction mixture also contains 0.5 nM of the agonist CP55940 (or 50 nM of methanandamide), and the reversal of the CP55940 (or methanandamide) effect is quantitated with increasing concentration of the test compound. Intracellular cAMP is determined as described above. An IC50 value for the test compound is calculated from the titration curve.

[3] = tested on: human GABA α1β3β2 receptors; experiment: GABAa, 3H-muscimol binding assay; details: activity at 10 μM as percentage of activity of control compound P18 at 10 μM (increase of 3H-muscimol binding)
Experimental: Membranes from recombinant Ltk cells expressing human GABA α1β3β2 receptors were suspended in an ice-cold solution of 100 mM KCl, 10 mM KH2PO4, adjusted to pH=7.4 with 1 M KOH. Tritiated muscimol (PerkinElmer, Wellesley, Mass.) at a concentration of 2 nM, and serial five-fold dilutions of test compounds at 10 μM, 2.0 μM, 400 nM, 80 nM, 16 nM, 3.2 nM, 0.64 nM and 0.13 nM were mixed in 96-well plates containing 200 μL of membrane suspension. Cold muscimol and compound P18 were used as negative and positive controls respectively. The assay mixture was incubated at 4° C. for 2 hours, then harvested on GF/C filter plates and washed with ice-cold 50 mM Tris-Ci buffer. The filter plates were dried and counted in a Wallac MicroBeta® Trilux detector (Model 1450-030; PerkinElmer, Wellesley, Mass.), and the data were downloaded and analyzed using Prism 3.0. The activity of compound P18 at 10 μM was used as reference for the test compounds, and it was expressed as increasing ^3H-muscimol binding by 100%, whereas cold muscimol at 2 μM antagonized ^3H-muscimol binding by 100%. The tested compound's activity at 10 μM was expressed as a percentage of compound P18's activity at 10 μM.
As a reference, the parent compound (the compound not substituted with a R^4 heteroaryl, such as pyrazole or 1,2,4-oxadiazole, as indicated below) is also shown with its Gamma Amino Butyric Acid (GABA) Receptor activity. […] As a result, the compounds of the present invention in which R^4 is a heteroaryl, such as pyrazole or 1,2,4-oxadiazole, have the unexpected benefits of minimizing off target activity at the GABA receptor.
Note: % GABA is defined as the GABA activity of the indicated compound expressed as a percentage of the activity of control compound P18. NA=data not available.

[4] = recombinant human CB1 receptor expressed in CHO cells, 0.6 nM [3H]CP-55940, read-out: CB1 binding IC50
[5] = CB1-CHO cells, forskolin-stimulated cAMP, read-out: EC50 in the CB1 functional activity assay

T1 sequence (P21554 whole entry): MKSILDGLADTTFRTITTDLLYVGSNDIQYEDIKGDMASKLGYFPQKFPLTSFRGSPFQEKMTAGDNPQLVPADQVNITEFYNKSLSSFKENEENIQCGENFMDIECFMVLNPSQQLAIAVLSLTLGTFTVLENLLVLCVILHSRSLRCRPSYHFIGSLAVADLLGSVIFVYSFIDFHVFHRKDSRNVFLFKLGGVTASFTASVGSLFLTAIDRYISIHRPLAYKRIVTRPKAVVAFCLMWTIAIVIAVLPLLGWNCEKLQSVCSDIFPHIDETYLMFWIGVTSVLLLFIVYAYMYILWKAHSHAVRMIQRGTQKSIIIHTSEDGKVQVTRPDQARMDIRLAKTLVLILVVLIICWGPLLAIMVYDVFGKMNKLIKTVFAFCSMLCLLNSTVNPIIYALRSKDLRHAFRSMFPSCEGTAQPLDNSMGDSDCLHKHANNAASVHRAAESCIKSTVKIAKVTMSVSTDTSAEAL

Row | SMILES | IC50 [1, 4] [nM] | EC50 [2, 5] [nM] | functional mode at CB1 receptor [2] | % GABA Example [3] [%] | IC50 [1] [nM] | EC50 [2] [nM]
1 | CC(C)(C)C(=O)c1oc2nc(-c3ccc(-c4cn[nH]c4)cc3Cl)c(-c3ccc(Cl)cc3)cc2c1N [Example 7, 1-{3-Amino-5-(4-chlorophenyl)-6-[2-chloro-4-(1H-pyrazol-4-yl)phenyl]furo[2,3-b]pyridin-2-yl}-2,2-dimethylpropan-1-one] | 1 | < 20 | functional inverse agonists | 17 |  | 
2 | Cc1c(S(=O)(=O)C(C)(C)C)oc2nc(-c3ccc(-c4cn[nH]c4)cc3Cl)c(-c3ccc(Cl)cc3)cc12 [Example 11, 2-(Tert-butylsulfonyl)-5-(4-chlorophenyl)-6-[2-chloro-4-(1H-pyrazol-4-yl)phenyl]-3-methylfuro[2,3-b]pyridine] | 1 | < 20 | functional inverse agonists | 7 |  | 
3 | CC(=O)c1c(C(=O)C(C)C)oc2nc(-c3ccc(-c4c[nH]nc4C)cc3Cl)c(-c3ccc(Cl)cc3)cc12 [Example 38, 1-[3-Acetyl-6-[2-chloro-4-(3-methyl-1H-pyrazol-4-yl)phenyl]-5-(4-chlorophenyl)furo[2,3-b]pyridin-2-yl]-2-methylpropan-1-one] | 3 | < 20 | functional inverse agonists | 39 |  | 
4 | CC(=O)c1c(C(=O)C(C)(C)C)oc2nc(-c3ccc(-c4c[nH]nc4C)cc3Cl)c(-c3ccc(Cl)cc3)cc12 [Example 40, 1-[3-Acetyl-6-[2-chloro-4-(3-methyl-1H-pyrazol-4-yl)phenyl]-5-(4-chlorophenyl)furo[2,3-b]pyridin-2-yl]-2,2-dimethylpropan-1-one] |  |  | functional inverse agonists | 12 | 1 | < 20
5 | CC(=O)Nc1c(C(=O)C(C)(C)O)oc2nc(-c3ccc(-c4c[nH]nc4C)cc3Cl)c(-c3ccc(Cl)cc3)cc12 [Example 41, N-[6-[2-Chloro-4-(3-methyl-1H-pyrazol-4-yl)phenyl]-5-(4-chlorophenyl)-2-(2-hydroxy-2-methylpropanoyl)furo[2,3-b]pyridin-3-yl]acetamide] | 5 | < 20 | functional inverse agonists | 35 |  | 

Further lines, with some results ahead:

Row | IC50 [1, 4] [nM] | EC50 [2, 5] [nM] | functional mode at CB1 receptor [2] | % GABA Example [3] [%] | SMILES | IC50 [1] [nM] | EC50 [2] [nM]
6 | 1 | < 20 | functional inverse agonists | 9 | Cc1n[nH]cc1-c1ccc(-c2nc3oc(C(=O)C(C)(C)C)c(C(N)=O)c3cc2-c2ccc(Cl)cc2)c(Cl)c1 [Example 3, 6-[2-chloro-4-(3-methyl-1H-pyrazol-4-yl)phenyl]-5-(4-chlorophenyl)-2-(2,2-dimethylpropanoyl)furo[2,3-b]pyridine-3-carboxamide] |  | 
7 | 1 | < 20 | functional inverse agonists | 14 | Cc1n[nH]cc1-c1ccc(-c2nc3oc(C(=O)C(C)(C)C)c(CO)c3cc2-c2ccc(Cl)cc2)c(Cl)c1 [Example 37, 1-[6-[2-Chloro-4-(3-methyl-1H-pyrazol-4-yl)phenyl]-5-(4-chlorophenyl)-3-(hydroxymethyl)furo[2,3-b]pyridin-2-yl]-2,2-dimethylpropan-1-one] |  | 
8 | 0.4 | < 20 | functional inverse agonists | 41 | CC(C)(C)C(=O)c1oc2nc(-c3ccc(-c4ncon4)cc3Cl)c(-c3ccc(Cl)cc3)cc2c1NC(=O)CO [Example 43, N-[6-[2-Chloro-4-(1,2,4-oxadiazol-3-yl)phenyl]-5-(4-chlorophenyl)-2-(2,2-dimethylpropanoyl)furo[2,3-b]pyridin-3-yl]-2-hydroxyacetamide] |  | 
